Consider 1 compound from patent US20180326022A1, “COMPOSITIONS AND METHODS FOR IMPROVING HEART FUNCTION AND TREATING HEART FAILURE” (The Trustees of the University of Pennsylvania, priority 2017, published 2018).

The structures appear in SMILES notation.

One experiment relates to rat adult cardiomyocytes. Kind of experiment: Immunofluorescence quantification of α- and dTyr-tubulin fraction of cell area. The experiment is classed as cell-based. Here is the method: Viral constructs were permitted to express for 24-72 hours with Moi=100-200. Parthenolide (Fisher Scientific NC9013142) treatment was carried out at room temperature for 2 hours at 10 μM. All experiments were performed within 48 hours of isolation, except those involving shTTL, which were allowed 72 hours to improve knockdown efficiency.
Cells were fixed in 4% PFA for 15 minutes and permeabilized in 0.5% TritonX-100 for 4 minutes at room temperature. Alternately cells were fixed in methanol at −20° C. for 7 minutes. After washing, cells were placed in blocking buffer (5% BSA and 0.1% TritonX-100 in PBS) for 1 hour, then labeled with primary antibodies (below) for 24-48 hours at 4° C. Cells were then washed 4× in blocking buffer, labeled with secondary antibodies (below) at room temperature and washed 3× in blocking buffer. Stained cells were mounted on mouse laminin coated #1.5 coverslips in Prolong Gold Antifade Mountant (Life Technologies P36934) for imaging.
Confocal imaging was carried out on a Zeiss 780 laser scanning confocal scan head operating on an Axiovert Z1 inverted microscope equipped with a 40× oil 1.4 NA objective. High-speed super resolution imaging was carried out on a Zeiss 880 Airyscan confocal with a 63×1.4 oil NA objective (FIG. 8A-FIG. 8E, Airyscan application note can be found at http://www.zeiss.com/microscopy/enus/products/confocal-microscopes/Ism-880-with-airyscan-.html#downloads). Image analysis was performed using ZEN Black software for Airyscan processing, which involves signal integration from the 32 separate sub-resolution detectors in the Airyscan detector and subsequent deconvolution of this integrated signal (FIG. 8A-FIG. 8E). Additional signal processing was performed in Image J (NIH). For calculating the microtubule fraction of cell area (FIG. 2B-FIG. 2C), image analysis was performed blinded to the experimental treatment groups. A 1.5 μm max intensity projection was produced from 3 0.5 μm confocal z-sections. […] From the resulting binary images (FIG. 9B), the microtubule positive fraction of the total cell area was calculated for alpha and detyrosinated tubulin (FIG. 2C).

The test system of the next experiment is human myocytes. Description: Nanoindentation stiffness measurements. Particulars: failing human myocytes; 10 μM, 2 hours. The class given is cell-based. As to the method: Viable myocytes were concentrated by gravity (5-7 min) and supernatant was aspirated to remove dead cells. Myocytes were resuspended in NT solution containing 1 mM Ca^2+ and concentrated by gravity (5-7 min) again. Cardiomyocytes used acutely were maintained in NT solution for up to 6 hours. Myocytes were treated with 10 μM parthenolide (Fisher Scientific NC9013142 or Sigma P0667) or 10 μM colchicine (Sigma) at room temperature in NT solution for 2 hours. Experiments were performed within 6 hours of isolation, except for those involving viral transduction in cultured cells.
MatTek glass bottom dish was coated 5 μl of 0.5 mg/ml laminin and air dried for 10 min. Culture medium was F-10 (1×) Nutrient Mixture (Ham) [+] L-Glutamine (Life Technologies, 11550-043) supplemented with insulin-transferrin selenium-X (Gibco, 51500-056), 20 mM HEPES, 1 μg/μl primocin (Invivogen, ant-pm-1), 0.4 mM extra CaCl2, 5% FBS, 25 μM cytochalasin D (Cayman, 11330). Viable myocytes were concentrated and a proper amount of medium was added in culture so that neighboring cells were not in direct contact. […]
Mechanical properties at the microscopic scale were measured using nanoindentation (Piuma, Optics11, The Netherlands). […] The Young's moduli were calculated automatically by the software, by fitting the force vs. indentation curve to the Hertz equation. […]

For the next experiment, the system named is desmin. Description: Microtubule co-sedimentation with desmin. The experiment is classed as cell-based. Particulars: after PTL treatment; rat cardiomyocytes and C2C12 cells. As to the method: Microtubules were isolated for co-sedimentation from isolated cardiomyocytes or C2C12 cells following treatment with parthenolide. Cells were homogenized at 37° C. in 400 μl of microtubule-stabilizing buffer (MSB) by passage through 25G syringe needle. Homogenate was centrifuged to remove cell debris at 2000×g for 5 min at 37° C. and pellet was resuspended in RIPA buffer containing 5 mM CaCl2. Supematant containing free and polymerized tubulin was loaded on a cushion of 10% sucrose in MSB and centrifuged in SW-60 rotor at 100000×g for 30 min at 37° C. Supernatant was saved, pellet (polymerized MT fraction) was resuspended in 0° C. RIPA buffer containing 5 mM CaCl2 and incubated on ice for 10 min. All samples were then centrifuged at 14000×g for 5 min at 0° C. and supernatant was measured by Bradford assay against a BSA (Sigma) standard and boiled in 12-40 μl of 1× loading buffer (Li-COR, 928-40004) prior to western blotting.

Experiment [1] relates to cardiac and skeletal muscle. Particulars: 10 μM; refs (13), (8); cited from earlier work.
Where [2] appears, read: rat cardiomyocytes, thresholded immunofluorescence, TTL vs null, PTL vs ctrl.

For `C=C1C(=O)O[C@H]2[C@H]1CC/C(C)=C/CC[C@@]1(C)O[C@@H]21` [PTL, 4,5-epoxygermacra-1(10),11(13)-dien-12,6-olactone], the “effect on MT network density” value in the experiment with rat adult cardiomyocytes (PTL treatment) is listed as “no effect”. The “reduction in the amount/fraction of polymerized, detyrosinated MTs” value with rat adult cardiomyocytes (isolated rat cardiomyocytes, immunofluorescence and immunoblot) was found to be 2 fold. For the same compound, in the experiment on rat adult cardiomyocytes (setting [2]), the “Detyr (% cell area)” value is listed as 30.8 % cell area and the “α-tub (% cell area)” value turned out to be 67.8 % cell area. For the same compound, the “viscoelasticity (Emax and EΔ)” value in the experiment on human myocytes is given as “robustly reduced viscoelasticity”. In addition, the “amount of desmin associated with the MTs” value in the experiment on desmin was “directly proportional to the amount of MT detyrosination”. In addition, in experiment [1], the effect on microtubules entry is “suppresses detyrosination”.
